Target: T1, MdtM (Escherichia coli, UniProt P39386)
T1 construct: full-length 410 residues, pBAD/Myc-His A vector (C-terminal Myc-His tag), overproduced in E. coli LMG194, purified in DDM detergent
Assay: biochemical
Assay type: binding
Excerpt: intrinsic tryptophan fluorescence quenching on MdtM

T1 sequence (P39386 whole entry): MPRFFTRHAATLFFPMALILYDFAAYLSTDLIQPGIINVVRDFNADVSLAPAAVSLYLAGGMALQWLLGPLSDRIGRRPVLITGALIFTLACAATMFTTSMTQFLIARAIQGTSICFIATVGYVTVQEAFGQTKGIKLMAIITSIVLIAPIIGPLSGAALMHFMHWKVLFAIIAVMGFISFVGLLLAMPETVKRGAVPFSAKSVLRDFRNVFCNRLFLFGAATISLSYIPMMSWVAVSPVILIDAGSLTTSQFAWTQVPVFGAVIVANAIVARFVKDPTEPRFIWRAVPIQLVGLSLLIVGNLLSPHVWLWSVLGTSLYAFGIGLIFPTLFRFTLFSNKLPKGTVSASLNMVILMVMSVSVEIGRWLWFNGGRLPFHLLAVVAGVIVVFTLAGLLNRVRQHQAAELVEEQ

| Compound | Kd |
| --- | --- |
| O=C(N[C@H](CO)[C@H](O)c1ccc([N+](=O)[O-])cc1)C(Cl)Cl [chloramphenicol, 2,2-dichloro-N-[2-hydroxy-1-hydroxymethyl-2-(4-nitro-phenyl)-ethyl]-acetamide] | 22 ± 4 nM |
| c1ccc([P+](c2ccccc2)(c2ccccc2)c2ccccc2)cc1 [TPP+] | 400 ± 145 nM |
